Where “and” joins values, the source holds several entries; their conditions need not be identical. Equal values may be shown once. Toxic doses and inconclusive results are not listed.
Tested on: nude mice, LOX melanoma ip, survival T/C
Experiment: NCI In Vivo Anticancer Drug Screen. Data for tumor model Human Amelanotic Melanoma (LOX) (intraperitoneal) in NU/NU BALB/C (nude) mice
Conditions: endpoint: median survival time, schedule: Q04DX003 (ip), higher = longer survival
Procedure: The antitumor activity of compounds was measured in mice bearing transplantable tumors. Survival or tumor size were measured and the results are expressed as the measurement made in the treated group (T) divided by the measurement made in the vehicle treated control group (C). The tumor model used in this assay is Human Amelanotic Melanoma (LOX) (intraperitoneal) in NU/NU BALB/C (nude) mice

[1] = dose: 50.0 mg/kg/injection, vehicle: Klucel (hydroxypropylcellulose) (HPC)
[2] = dose: 100.0 mg/kg/injection, vehicle: Klucel (hydroxypropylcellulose) (HPC)
[3] = dose: 200.0 mg/kg/injection, vehicle: Klucel (hydroxypropylcellulose) (HPC)
[4] = dose: 400.0 mg/kg/injection, vehicle: Klucel (hydroxypropylcellulose) (HPC)
[5] = dose: 25.0 mg/kg/injection, vehicle: Klucel (hydroxypropylcellulose) (HPC)

Q: For `CCOC(=O)c1c[nH]c2ccc3c(nc(C)n3C)c2c1=O`, which T/C [1] is on record?
A: The T/C was 100 % of control.

Q: What about the T/C [2] of the same compound?
A: Its T/C is 104 % of control.

Q: And the T/C [3]?
A: The T/C was 93 % of control.

Q: What about the T/C [4] of the same compound?
A: The T/C was 100 % of control.

Q: What about the T/C (dose: 800.0 mg/kg/injection, vehicle: Klucel (hydroxypropylcellulose) (HPC)) of the same compound?
A: Its T/C is 94 % of control.

Q: For `COc1cc(C2CC(C)(O)Oc3cc4c(cc32)OCO4)cc(OC)c1OC` (stereo not given), which T/C (dose: 50.0 mg/kg/injection, vehicle: saline with Tween-80) is on record?
A: Its T/C is 109 % of control and 98 % of control.

Q: What about the T/C (dose: 100.0 mg/kg/injection, vehicle: saline with Tween-80) of the same compound?
A: Its T/C is 96 % of control.

Q: What about the T/C (dose: 200.0 mg/kg/injection, vehicle: saline with Tween-80) of the same compound?
A: The T/C was 93 % of control.

Q: Which results are given for `O=C1c2ccccc2C(=O)c2c1cn1c2Cc2ccccc2C1`?
A: T/C (dose: 6.25 mg/kg/injection, vehicle: Klucel (hydroxypropylcellulose) (HPC)): 91 % of control; T/C [5]: 93 % of control; T/C [1]: 109 % of control and 95 % of control; T/C [2]: 90 % of control; T/C [3]: 91 % of control; T/C [4]: 95 % of control

Q: For `S=C(N/N=C1/CCCC/C1=N/NC(=S)N1CCOCC1)N1CCOCC1`, which T/C (dose: 3.13 mg/kg/injection, vehicle: saline with Tween-80) is on record?
A: The T/C was 116 % of control.

Q: And the T/C (dose: 6.25 mg/kg/injection, vehicle: saline with Tween-80)?
A: The T/C was 117 % of control.

Q: What about the T/C (dose: 12.5 mg/kg/injection, vehicle: saline with Tween-80) of the same compound?
A: The T/C was 110 % of control.

Q: For `O=C(CN1CCOCC1)Nc1nc(-c2ccc(Cl)cc2)cs1`, which T/C (dose: 75.0 mg/kg/injection, vehicle: DMSO) is on record?
A: The T/C was 119 % of control.

Q: What about the T/C (dose: 150.0 mg/kg/injection, vehicle: DMSO) of the same compound?
A: The T/C was 112 % of control.

Q: What about the T/C (dose: 300.0 mg/kg/injection, vehicle: DMSO) of the same compound?
A: Its T/C is 88 % of control.

Q: And the T/C (dose: 600.0 mg/kg/injection, vehicle: DMSO)?
A: Its T/C is 95 % of control.

Q: What about the T/C (dose: 1200.0 mg/kg/injection, vehicle: DMSO) of the same compound?
A: The T/C was 92 % of control.

Q: Which T/C (dose: 0.25 mg/kg/injection, vehicle: saline with Tween-80) does the source give for `Cc1ccc(C(=O)NC2C(=O)NC(C(C)C)C(=O)N3CCCC3C(=O)N(C)CC(=O)N(C)C(C(C)C)C(=O)OC2C)c2c1Oc1c(c(C(=O)NC3C(=O)NC(C(C)C)C(=O)N4CCCC4C(=O)N(C)CC(=O)N(C)C(C(C)C)C(=O)OC3C)c3nc(-c4ccccc4)c(=O)oc3c1C)N2` (stereo not given) here?
A: Its T/C is 159 % of control.

Q: And the T/C (dose: 0.5 mg/kg/injection, vehicle: saline with Tween-80)?
A: The T/C was 161 % of control.

Q: What about the T/C (dose: 1.0 mg/kg/injection, vehicle: saline with Tween-80) of the same compound?
A: Its T/C is 224 % of control.

Q: What about the T/C (dose: 2.0 mg/kg/injection, vehicle: saline with Tween-80) of the same compound?
A: The T/C was 295 % of control.

Q: What about the T/C (dose: 4.0 mg/kg/injection, vehicle: saline with Tween-80) of the same compound?
A: The T/C was 301 % of control.

Q: Which results are given for `Cc1ccc(C2=CSC3=NCCN23)cc1Cl`?
A: T/C (dose: 12.5 mg/kg/injection, vehicle: Klucel (hydroxypropylcellulose) (HPC)): 97 % of control; T/C [5]: 96 % of control; T/C [1]: 101 % of control

Q: With `COc1c2c(c(O)c3c4c(c(C)cc13)C1OC3(C(OC)OC5CC(C)(O)C(OC6CC(C)(O)C(O)C(C)O6)C(C)O5)OC1C(OC)(O4)C31CO1)C(=O)C(O)CC2OC1CC(C)(O)C(OC(C)=O)C(C)O1` (stereo not given) as the compound, how does the T/C (dose: 12.5 micrograms/kg/injection, vehicle: saline) read?
A: The T/C was 261 % of control.

Q: And the T/C (dose: 25.0 micrograms/kg/injection, vehicle: saline)?
A: Its T/C is 181 % of control.

Q: And the T/C (dose: 50.0 micrograms/kg/injection, vehicle: saline)?
A: The T/C was 107 % of control.

Q: `CCCn1c(SC)nc(COC(=O)NC)c1COC(=O)NC` was tested. Which T/C (dose: 30.0 mg/kg/injection, vehicle: saline) did it give?
A: The T/C was 104 % of control.

Q: And the T/C (dose: 60.0 mg/kg/injection, vehicle: saline)?
A: The T/C was 123 % of control.

Q: And the T/C (dose: 106.8 mg/kg/injection, vehicle: water)?
A: Its T/C is 98 % of control.

Q: What about the T/C (dose: 120.0 mg/kg/injection, vehicle: saline) of the same compound?
A: Its T/C is 119 % of control.

Q: What about the T/C (dose: 160.1 mg/kg/injection, vehicle: water) of the same compound?
A: The T/C was 103 % of control.

Q: What about the T/C (dose: 240.0 mg/kg/injection, vehicle: saline) of the same compound?
A: The T/C was 191 % of control.

Q: What about the T/C (dose: 240.0 mg/kg/injection, vehicle: water) of the same compound?
A: The T/C was 122 % of control.

Q: What about the T/C (dose: 359.8 mg/kg/injection, vehicle: water) of the same compound?
A: The T/C was 189 % of control.

Q: And the T/C (dose: 480.0 mg/kg/injection, vehicle: saline)?
A: Its T/C is 170 % of control.

Q: For `COc1cc2c(cc1OC)-c1c3c(cc4c1[C@@H](C2)N(C)CC4)OCO3`, which T/C (dose: 32.0 mg/kg/injection, vehicle: distilled water + Tween-80 + alcohol) is on record?
A: Its T/C is 115 % of control.

Q: And the T/C (dose: 90.0 mg/kg/injection, vehicle: distilled water + Tween-80 + alcohol)?
A: Its T/C is 109 % of control.

Q: And the T/C (dose: 150.0 mg/kg/injection, vehicle: distilled water + Tween-80 + alcohol)?
A: The T/C was 123 % of control.

Reference: PubChem BioAssay AID280 (DTP/NCI, 2004)
